According to patent publication US8039486B2, “Indole, azaindole and related heterocyclic N-substituted piperazine derivatives” (priority 2003, dated 2011):

The compounds below were run on HIV-1 single-round infectious reporter virus (assay: Single-round infectious HIV-1 luciferase reporter virus infection of HeLa CD4 cells). Conditions: Human immunodeficiency virus 1, HeLa, 72 h, read-out: EC50 Group from Table 1.
Assay type: cell-based
Protocol: • Virus production—Human embryonic Kidney cell line, 293, was propagated in Dulbecco's Modified Eagle Medium (Invitrogen, Carlsbad, Calif.) containing 10% fetal Bovine serum (FBS, Sigma, St. Louis, Mo.). • Virus infection—Human epithelial cell line, HeLa, expressing the HIV-1 receptor CD4 was propagated in Dulbecco's Modified Eagle Medium (Invitrogen, Carlsbad, Calif.) containing 10% fetal Bovine serum (FBS, Sigma, St. Louis, Mo.) and supplemented with 0.2 mg/mL Geneticin (Invitrogen, Carlsbad, Calif.). Virus-Single-round infectious reporter virus was produced by co-transfecting human embryonic Kidney 293 cells with an HIV-1 envelope DNA expression vector and a proviral cDNA containing an envelope deletion mutation and the luciferase reporter gene inserted in place of HIV-1 nef sequences (Chen et al, Ref 41). Transfections were performed using lipofectAMINE PLUS reagent as described by the manufacturer (Invitrogen, Carlsbad, Calif.). Experiment • 1. HeLa CD4 cells were plated in 96 well plates at a cell density of 1×10^4 cells per well in 100 μl Dulbecco's Modified Eagle Medium containing 10% fetal Bovine serum and incubated overnight. • 2. Compound was added in a 2 μl dimethylsulfoxide solution, so that the final assay concentration would be ≦10 μM. • 3. 100 μl of single-round infectious reporter virus in Dulbecco's Modified Eagle Medium was then added to the plated cells and compound at an approximate multiplicity of infection (MOI) of 0.01, resulting in a final volume of 200 μl per well. • 4. Virally-infected cells were incubated at 37 degrees Celsius, in a CO2 incubator, and harvested 72 h after infection. • 5. Viral infection was monitored by measuring luciferase expression from viral DNA in the infected cells using a luciferase reporter gene assay kit, as described by the manufacturer (Roche Molecular Biochemicals, Indianapolis, Ind.). Infected cell supernatants were removed and 50 μl of lysis buffer was added per well. After 15 minutes, 50 μl of freshly-reconstituted luciferase assay reagent was added per well. Luciferase activity was then quantified by measuring luminescence using a Wallac microbeta scintillation counter. • 6. The percent inhibition for each compound was calculated by quantifying the level of luciferase expression in cells infected in the presence of each compound as a percentage of that observed for cells infected in the absence of compound and subtracting such a determined value from 100. • 7. An EC50 provides a method for comparing the antiviral potency of the compounds of this invention. The effective concentration for fifty percent inhibition (EC50) was calculated with the Microsoft Excel Xlfit curve fitting software. For each compound, curves were generated from percent inhibition calculated at 10 different concentrations by using a four paramenter logistic model (model 205). Table 1 is the key for the data in Table 2. Results
For `COc1ccc(-n2cncn2)c2[nH]cc(C(=O)C(=O)N3CCN(c4nccc5ccccc45)CC3)c12` [Example 31], the EC50 was < 1000 nM. With `COC(=O)Cc1n[nH]c(-c2ccc(OC)c3c(C(=O)C(=O)N4CCN(c5nccc6ccccc56)CC4)c[nH]c23)n1` [Example 32] the EC50 was < 1000 nM. With `COc1ccc(-c2nc(CC(=O)O)n[nH]2)c2[nH]cc(C(=O)C(=O)N3CCN(c4nccc5ccccc45)CC3)c12` [Example 33] the EC50 was < 1000 nM. In the case of `CNC(=O)Cc1n[nH]c(-c2ccc(OC)c3c(C(=O)C(=O)N4CCN(c5nccc6ccccc56)CC4)c[nH]c23)n1` [Example 34], the EC50 is reported as < 1000 nM. With `COc1ccc(-c2nc(CC(N)=O)n[nH]2)c2[nH]cc(C(=O)C(=O)N3CCN(c4nccc5ccccc45)CC3)c12` [Example 35] the EC50 was < 1000 nM. `COc1cnc(-n2cncn2)c2[nH]cc(C(=O)C(=O)N3CCN(c4nccc5ccccc45)CC3)c12` [Example 36] was tested, and the EC50 was < 1000 nM. In the case of `O=C(C(=O)N1CCN(c2nccc3ccccc23)CC1)c1c[nH]c2c(Cl)ccnc12` [Example 37], the EC50 is reported as < 1000 nM. With `O=C(C(=O)N1CCN(c2nccc3ccccc23)CC1)c1c[nH]c2c(-c3nccs3)ccnc12` [Example 38] the EC50 was < 1000 nM. With `COc1cnc(-n2cnc(C)n2)c2[nH]cc(C(=O)C(=O)N3CCN(c4ccnc5ccccc45)CC3)c12` [Example 39] the EC50 was < 1000 nM. With `Cc1cc(N2CCN(C(=O)C(=O)c3c[nH]c4c(-c5ncon5)ccc(F)c34)CC2)c2ccccc2n1` [Example 40] the EC50 was < 1000 nM. `COc1ccc(C#N)c2[nH]cc(C(=O)C(=O)N3CCN(c4nccc5ccccc45)CC3)c12` [Example 43] was tested, and the EC50 was < 1000 nM. In the case of `COc1ccc(C#N)c2[nH]cc(C(=O)C(=O)N3CCN(c4ncnc5ccccc45)CC3)c12` [Example 44], the EC50 is reported as < 1000 nM. In the case of `COc1cnc(C#N)c2[nH]cc(C(=O)C(=O)N3CCN(c4ncnc5ccccc45)CC3)c12` [Example 45], the EC50 is reported as < 1000 nM. `COc1cnc(-n2cnc(C)n2)c2[nH]cc(C(=O)C(=O)N3CCN(c4ncnc5ccccc45)CC3)c12` [Example 46] was tested, and the EC50 was < 1000 nM. In the case of `COc1cnc(-n2cncn2)c2[nH]cc(C(=O)C(=O)N3CCN(c4ncnc5ccccc45)CC3)c12` [Example 47], the EC50 is reported as < 1000 nM. For `O=C(C(=O)N1CCN(c2ncnc3ccccc23)CC1)c1c[nH]c2c(-n3ccnn3)ncc(F)c12` [Example 48], the EC50 was < 1000 nM. For `COc1cnc(C(N)=O)c2[nH]cc(C(=O)C(=O)N3CCN(c4ncnc5ccccc45)CC3)c12` [Example 49], the EC50 was < 1000 nM. `COc1cnc(C(=O)O)c2[nH]cc(C(=O)C(=O)N3CCN(c4ncnc5ccccc45)CC3)c12` [Example 50] was tested, and the EC50 was < 1000 nM. For `COc1cnc(-n2nccn2)c2[nH]cc(C(=O)C(=O)N3CCN(c4ncnc5ccccc45)CC3)c12` [Example 51], the EC50 was < 1000 nM. `COc1cnc(-n2ccnn2)c2[nH]cc(C(=O)C(=O)N3CCN(c4ncnc5ccccc45)CC3)c12` [Example 52] was tested, and the EC50 was < 1000 nM. `COc1cnc(Br)c2[nH]cc(C(=O)C(=O)N3CCN(c4ncnc5ccccc45)CC3)c12` [Example 53] was tested, and the EC50 was < 1000 nM. For `COc1cnc(-n2ccnn2)c2[nH]cc(C(=O)C(=O)N3CCN(c4nncc5ccccc45)CC3)c12` [Example 54], the EC50 was < 1000 nM. For `COc1cnc(-n2cnc(C)n2)c2[nH]cc(C(=O)C(=O)N3CCN(c4nncc5ccccc45)CC3)c12` [Example 55], the EC50 was < 1000 nM. `O=C(C(=O)N1CCN(c2nncc3ccccc23)CC1)c1c[nH]c2c(-n3ccnn3)ncc(F)c12` [Example 56] was tested, and the EC50 was < 1000 nM. For `COc1nnc(N2CCN(C(=O)C(=O)c3c[nH]c4c(-n5cnc(C)n5)ncc(OC)c34)CC2)c2ccccc12` [Example 57], the EC50 was < 1000 nM. With `COc1cnc(-n2cnc(C)n2)c2[nH]cc(C(=O)C(=O)N3CCN(c4nnc(O)c5ccccc45)CC3)c12` [Example 58] the EC50 was < 1000 nM. `Cc1nc(N2CCN(C(=O)C(=O)c3c[nH]c4c(-n5ccnn5)ncc(F)c34)CC2)c2ccccc2n1` [Example 59] was tested, and the EC50 was < 1000 nM. `COc1cnc(-n2cnc(C)n2)c2[nH]cc(C(=O)C(=O)N3CCN(c4nc(C)nc5ccccc45)CC3)c12` [Example 60] was tested, and the EC50 was < 1000 nM. For `COc1cnc(-n2ccnn2)c2[nH]cc(C(=O)C(=O)N3CCN(c4nc(C)nc5ccccc45)CC3)c12` [Example 61], the EC50 was < 1000 nM. For `COc1cnc(Br)c2[nH]cc(C(=O)C(=O)N3CCN(c4nncc5ccccc45)CC3)c12` [Example 62], the EC50 was < 1000 nM. For `COc1cnc(C(N)=O)c2[nH]cc(C(=O)C(=O)N3CCN(c4nncc5ccccc45)CC3)c12` [Example 64], the EC50 was < 1000 nM. `COc1cnc(-n2cnc(C)n2)c2[nH]cc(C(=O)C(=O)N3CCN(c4nc(N)cc5ccccc45)CC3)c12` [Example 65] was tested, and the EC50 was < 1000 nM. `COc1cnc(-n2cnc(C)n2)c2[nH]cc(C(=O)C(=O)N3CCN(c4nc(Cl)cc5ccccc45)CC3)c12` [Example 66] was tested, and the EC50 was < 1000 nM. For `COc1cnc(-n2ccnn2)c2[nH]cc(C(=O)C(=O)N3CCN(c4nc(Cl)cc5ccccc45)CC3)c12` [Example 67], the EC50 was < 1000 nM. With `O=C(C(=O)N1CCN(c2nc(Cl)cc3ccccc23)CC1)c1c[nH]c2c(-n3ccnn3)ncc(F)c12` [Example 68] the EC50 was < 1000 nM. `COc1cnc(-n2cnc(C#N)n2)c2[nH]cc(C(=O)C(=O)N3CCN(c4ncnc5ccccc45)CC3)c12` [Example 69] was tested, and the EC50 was < 1000 nM. For `COc1cnc(-n2cnc(C(N)=O)n2)c2[nH]cc(C(=O)C(=O)N3CCN(c4ncnc5ccccc45)CC3)c12` [Example 70], the EC50 was < 1000 nM. In the case of `O=C(C(=O)N1CCN(c2nccc3ccccc23)CC1)c1c[nH]c2c(-c3ccccn3)ncc(F)c12` [Example 72], the EC50 is reported as < 1000 nM. `O=C(C(=O)N1CCN(c2ncnc3ccccc23)CC1)c1c[nH]c2c(Br)ncc(F)c12` [Example 73] was tested, and the EC50 was < 1000 nM. With `COc1cnc(Cl)c2[nH]cc(C(=O)C(=O)N3CCN(c4ncnc5ccccc45)CC3)c12` [Example 75] the EC50 was < 1000 nM. With `O=C(C(=O)N1CCN(c2nncc3ccccc23)CC1)c1c[nH]c2c(-c3ccccn3)ncc(F)c12` [Example 77] the EC50 was < 1000 nM. In the case of `O=C(C(=O)N1CCN(c2nncc3ccccc23)CC1)c1c[nH]c2c(-c3cnccn3)ncc(F)c12` [Example 78], the EC50 is reported as < 1000 nM. For `O=C(C(=O)N1CCN(c2ncnc3ccccc23)CC1)c1c[nH]c2c(-c3ccncc3)ncc(F)c12` [Example 79], the EC50 was 1000 to 5000 nM. For `COc1cnc(-c2cncnc2)c2[nH]cc(C(=O)C(=O)N3CCN(c4ncnc5ccccc45)CC3)c12` [Example 80], the EC50 was < 1000 nM. With `O=C(C(=O)N1CCN(c2ncnc3ccccc23)CC1)c1c[nH]c2c(-c3cncnc3)ncc(F)c12` [Example 81] the EC50 was < 1000 nM. For `COc1ncc(-c2ncc(F)c3c(C(=O)C(=O)N4CCN(c5ncnc6ccccc56)CC4)c[nH]c23)cn1` [Example 82], the EC50 was < 1000 nM. With `O=C(C(=O)N1CCN(c2ncnc3ccccc23)CC1)c1c[nH]c2c(-c3cccnc3)ncc(F)c12` [Example 83] the EC50 was < 1000 nM. In the case of `O=C(C(=O)N1CCN(c2ncnc3ccccc23)CC1)c1c[nH]c2c(-c3ncccn3)ncc(F)c12` [Example 84], the EC50 is reported as < 1000 nM. `COc1cnc(-n2cncn2)c2[nH]cc(C(=O)C(=O)N3CCN(c4ccnc5ccccc45)CC3)c12` [Example 85] was tested, and the EC50 was < 1000 nM. In the case of `COc1cc(N2CCN(C(=O)C(=O)c3c[nH]c4c(-n5cncn5)ncc(OC)c34)CC2)c2cc(C)ccc2n1` [Example 86], the EC50 is reported as < 1000 nM. `N#Cc1ncc(F)c2c(C(=O)C(=O)N3CCN(c4nccc5ccccc45)CC3)c[nH]c12` [Example 87] was tested, and the EC50 was < 1000 nM. `O=C(C(=O)N1CCN(c2nccc3ccccc23)CC1)c1c[nH]c2c(-c3nc(-c4ccccc4)n[nH]3)ncc(F)c12` [Example 88] was tested, and the EC50 was < 1000 nM.
